Results taken from PubChem BioAssay AID292 (DTP/NCI, 2004).
Values joined by “and” are separate entries in the source; they are usually repeats but may differ in a detail not shown here. Equal values may be shown once. Toxic doses and inconclusive results are not listed.

Tested on: B6C3F1 mice, ip Sarcoma M5076, median survival T/C
Assay: NCI In Vivo Anticancer Drug Screen. Data for tumor model Sarcoma M5076 (intraperitoneal) in B6C3F1 mice
Settings: endpoint: median survival time, higher = longer survival
In short: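 Survival measured in treated (T) and vehicle control (C) mice with transplantable tumour; result given as T divided by C.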

[1] = dose: 1.5 mg/kg/injection, schedule: Q04DX004 (ip), vehicle: saline with Tween-80
[2] = dose: 3.0 mg/kg/injection, schedule: Q04DX004 (ip), vehicle: saline with Tween-80
[3] = dose: 25.0 mg/kg/injection, schedule: Q04DX004 (ip), vehicle: saline with Tween-80
[4] = dose: 50.0 mg/kg/injection, schedule: Q04DX004 (ip), vehicle: saline with Tween-80
[5] = dose: 100.0 mg/kg/injection, schedule: Q04DX004 (ip), vehicle: saline with Tween-80
[6] = dose: 200.0 mg/kg/injection, schedule: Q04DX004 (ip), vehicle: saline with Tween-80
[7] = dose: 400.0 mg/kg/injection, schedule: Q04DX004 (ip), vehicle: saline with Tween-80
[8] = dose: 37.5 mg/kg/injection, schedule: Q04DX004 (ip), vehicle: saline with Tween-80
[9] = dose: 75.0 mg/kg/injection, schedule: Q04DX004 (ip), vehicle: saline with Tween-80
[10] = dose: 12.5 mg/kg/injection, schedule: Q04DX004 (ip), vehicle: saline with Tween-80
[11] = dose: 18.75 mg/kg/injection, schedule: Q04DX004 (ip), vehicle: saline with Tween-80
[12] = dose: 150.0 mg/kg/injection, schedule: Q04DX004 (ip), vehicle: saline with Tween-80
[13] = dose: 300.0 mg/kg/injection, schedule: Q04DX004 (ip), vehicle: saline with Tween-80

Compound: CCOC(=O)c1cn(C)c2c1C(=O)C(C(=O)OCC)CC(=O)N2 (stereo not given)
- T/C (dose: 31.25 mg/kg/injection, schedule: Q04DX004 (ip), vehicle: saline + Tween-80 + alcohol): 100 % of control
- T/C (dose: 62.5 mg/kg/injection, schedule: Q04DX004 (ip), vehicle: saline + Tween-80 + alcohol): 101 % of control
- T/C (dose: 125.0 mg/kg/injection, schedule: Q04DX004 (ip), vehicle: saline + Tween-80 + alcohol): 94 % of control
- T/C (dose: 250.0 mg/kg/injection, schedule: Q04DX004 (ip), vehicle: saline + Tween-80 + alcohol): 92 % of control

Compound: O=C1N[C@@H]2C(=C[C@H](O)[C@@H](O)[C@H]2O)c2cc3c(c(O)c21)OCO3
- T/C (dose: 0.38 mg/kg/injection, schedule: Q01DX009 (ip), vehicle: saline with Tween-80): 111 % of control
- T/C (dose: 0.38 mg/kg/injection, schedule: Q04DX004 (ip), vehicle: saline with Tween-80): 91 % of control
- T/C (dose: 0.75 mg/kg/injection, schedule: Q04DX004 (ip), vehicle: saline with Tween-80): 102 % of control and 110 % of control
- T/C (dose: 1.5 mg/kg/injection, schedule: Q01DX009 (ip), vehicle: saline with Tween-80): 123 % of control
- T/C [1]: 96 % of control and 119 % of control
- T/C [2]: 107 % of control

Compound: O=C1C(=O)C(CN2CCOCC2)=C(N2CCOCC2)C(N2CCOCC2)=C1CN1CCOCC1
- T/C [3]: 96 % of control
- T/C [4]: 101 % of control
- T/C [5]: 94 % of control
- T/C [6]: 88 % of control
- T/C [7]: 92 % of control

Compound: CC1Oc2cc3c(-c4c(O)cc(O)c5c(O)c6c(cc45)OC(C)C(C)C6=O)c(O)cc(O)c3c(O)c2C(=O)C1C (stereo not given)
- T/C (dose: 0.62 mg/kg/injection, schedule: Q01DX009 (ip), vehicle: suspension in saline): 102 % of control
- T/C (dose: 1.25 mg/kg/injection, schedule: Q01DX009 (ip), vehicle: suspension in saline): 109 % of control
- T/C (dose: 1.25 mg/kg/injection, schedule: Q04DX004 (ip), vehicle: suspension in saline): 151 % of control
- T/C (dose: 1.8 mg/kg/injection, schedule: Q04DX004 (ip), vehicle: suspension in saline): 97 % of control and 115 % of control
- T/C (dose: 3.0 mg/kg/injection, schedule: Q04DX004 (ip), vehicle: suspension in saline): 107 % of control and 114 % of control
- T/C (dose: 8.33 mg/kg/injection, schedule: Q04DX004 (ip), vehicle: suspension in saline): 123 % of control

Compound: C=CCNc1nc2c(s1)c(C)c(O)c1ccccc12
- T/C [8]: 98 % of control
- T/C [9]: 88 % of control

Compound: COc1ccc(O)cc1
- T/C [3]: 102 % of control
- T/C [4]: 98 % of control
- T/C [5]: 105 % of control
- T/C [6]: 113 % of control

Compound: OC1OC2COC(c3ccccc3)OC2C(O)C1O (stereo not given)
- T/C (dose: 18.75 mg/kg/injection, schedule: Q04DX004 (ip), vehicle: water): 109 % of control
- T/C (dose: 37.5 mg/kg/injection, schedule: Q04DX004 (ip), vehicle: water): 89 % of control
- T/C (dose: 75.0 mg/kg/injection, schedule: Q04DX004 (ip), vehicle: water): 96 % of control
- T/C (dose: 150.0 mg/kg/injection, schedule: Q04DX004 (ip), vehicle: water): 101 % of control
- T/C (dose: 300.0 mg/kg/injection, schedule: Q04DX004 (ip), vehicle: water): 98 % of control
- T/C (dose: 600.0 mg/kg/injection, schedule: Q04DX004 (ip), vehicle: water): 94 % of control

Compound: COc1ccc(-n2[nH]c3c(cnc4ccccc43)c2=O)cc1
- T/C (dose: 2.25 mg/kg/injection, schedule: Q04DX004 (ip), vehicle: saline with Tween-80): 93 % of control
- T/C (dose: 4.5 mg/kg/injection, schedule: Q04DX004 (ip), vehicle: saline with Tween-80): 95 % of control
- T/C (dose: 9.0 mg/kg/injection, schedule: Q04DX004 (ip), vehicle: saline with Tween-80): 94 % of control
- T/C (dose: 18.0 mg/kg/injection, schedule: Q04DX004 (ip), vehicle: saline with Tween-80): 89 % of control
- T/C (dose: 36.0 mg/kg/injection, schedule: Q04DX004 (ip), vehicle: saline with Tween-80): 92 % of control

Compound: CC(C)c1cc(C(=O)O)c(O)c(C(C)C)c1.CC(C)c1cc(C(=O)O)c(O)c(C(C)C)c1.[Cu]
- T/C [1]: 95 % of control and 104 % of control
- T/C [2]: 102 % of control and 104 % of control
- T/C (dose: 6.0 mg/kg/injection, schedule: Q04DX004 (ip), vehicle: saline with Tween-80): 96 % of control and 102 % of control
- T/C (dose: 12.0 mg/kg/injection, schedule: Q04DX004 (ip), vehicle: saline with Tween-80): 88 % of control and 102 % of control
- T/C [10]: 93 % of control
- T/C (dose: 24.0 mg/kg/injection, schedule: Q04DX004 (ip), vehicle: saline with Tween-80): 90 % of control

Compound: NC(=O)C(N)C(F)c1ccccc1 (stereo not given)
- T/C (dose: 31.25 mg/kg/injection, schedule: Q04DX004 (ip), vehicle: saline with Tween-80): 100 % of control
- T/C (dose: 62.5 mg/kg/injection, schedule: Q04DX004 (ip), vehicle: saline with Tween-80): 116 % of control
- T/C (dose: 125.0 mg/kg/injection, schedule: Q04DX004 (ip), vehicle: saline with Tween-80): 93 % of control
- T/C (dose: 250.0 mg/kg/injection, schedule: Q04DX004 (ip), vehicle: saline with Tween-80): 96 % of control

Compound: COC1CCCCC1C(N)C(=O)O (stereo not given) (tested in a mixture with another compound)
- T/C [3]: 100 % of control
- T/C [4]: 91 % of control
- T/C [5]: 95 % of control
- T/C [6]: 95 % of control
- T/C [7]: 93 % of control

Compound: c1ccc2c(c1)oc1cc3c(cc12)nnc1cccn13
- T/C (dose: 22.5 mg/kg/injection, schedule: Q04DX004 (ip), vehicle: Klucel (hydroxypropylcellulose) (HPC)): 92 % of control
- T/C (dose: 45.0 mg/kg/injection, schedule: Q04DX004 (ip), vehicle: Klucel (hydroxypropylcellulose) (HPC)): 96 % of control
- T/C (dose: 90.0 mg/kg/injection, schedule: Q04DX004 (ip), vehicle: Klucel (hydroxypropylcellulose) (HPC)): 94 % of control
- T/C (dose: 180.0 mg/kg/injection, schedule: Q04DX004 (ip), vehicle: Klucel (hydroxypropylcellulose) (HPC)): 88 % of control
- T/C (dose: 360.0 mg/kg/injection, schedule: Q04DX004 (ip), vehicle: Klucel (hydroxypropylcellulose) (HPC)): 92 % of control

Compound: N=C1C=CC2C(=Nc3ccccc3[N+]2=O)N1Cc1ccncc1 (stereo not given)
- T/C [11]: 95 % of control
- T/C [8]: 93 % of control
- T/C [9]: 91 % of control
- T/C [12]: 87 % of control
- T/C [13]: 87 % of control

Compound: CC(=O)Nc1ccc(Nc2ccc(C(=C3C=CC(=[N+](C)CCC#N)C=C3)c3ccc(N(C)CCC#N)cc3)cc2)cc1
- T/C [10]: 101 % of control
- T/C [3]: 101 % of control
- T/C [4]: 99 % of control
- T/C [5]: 100 % of control
- T/C [6]: 92 % of control

Compound: O=C(O)c1nn(-c2ccccc2-c2n[nH]c(=O)[nH]c2=O)c(=O)[nH]c1=O
- T/C [4]: 101 % of control
- T/C [5]: 100 % of control
- T/C [6]: 92 % of control

Compound: CNc1ncn(-c2c(C)cccc2C)c(=O)n1
- T/C (dose: 4.69 mg/kg/injection, schedule: Q04DX004 (ip), vehicle: saline with Tween-80): 98 % of control
- T/C (dose: 9.38 mg/kg/injection, schedule: Q04DX004 (ip), vehicle: saline with Tween-80): 109 % of control
- T/C [11]: 110 % of control
- T/C [8]: 109 % of control
- T/C [9]: 100 % of control and 105 % of control and 115 % of control
- T/C [12]: 99 % of control
- T/C [13]: 100 % of control
- T/C (dose: 600.0 mg/kg/injection, schedule: Q04DX004 (ip), vehicle: saline with Tween-80): 99 % of control

Compound: CC1=Nc2cc(N)nn2C(=O)C1
- T/C [4]: 96 % of control
- T/C [5]: 99 % of control

Compound: COC1CC(C)C(OC)c2cc(O)cc(c2O)NC(=O)/C(C)=C/C=C\C(C)C(OC(N)=O)/C(C)=C\C(C)C1OC (stereo not given)
- T/C (dose: 0.63 mg/kg/injection, schedule: Q01DX009 (ip), vehicle: saline + alcohol): 115 % of control
- T/C (dose: 1.25 mg/kg/injection, schedule: Q01DX009 (ip), vehicle: saline + alcohol): 111 % of control
- T/C (dose: 1.8 mg/kg/injection, schedule: Q01DX009 (ip), vehicle: saline + alcohol): 122 % of control
- T/C (dose: 2.5 mg/kg/injection, schedule: Q01DX009 (ip), vehicle: saline + alcohol): 107 % of control
